Patent US11414454B2, “Compositions, methods, and systems for affinity-based protein identification and purification” (Auctus Biologies, Inc., priority 2017, dated 2022)
“And” between values parts separate entries of the source, which are not always exact repeats. Equal values may be shown once. Read-outs that look alike come from different tables or passages of the source.

Legend:
[1] = molecular target: RPtag (large); experiment: Fluorescence anisotropy Kd of rhodamine labeled RPtag (small) peptides for RPtag (large); assay type: binding, Thermoanaerobacter tengcongensis
RPtag (large), sequence (as listed by the source): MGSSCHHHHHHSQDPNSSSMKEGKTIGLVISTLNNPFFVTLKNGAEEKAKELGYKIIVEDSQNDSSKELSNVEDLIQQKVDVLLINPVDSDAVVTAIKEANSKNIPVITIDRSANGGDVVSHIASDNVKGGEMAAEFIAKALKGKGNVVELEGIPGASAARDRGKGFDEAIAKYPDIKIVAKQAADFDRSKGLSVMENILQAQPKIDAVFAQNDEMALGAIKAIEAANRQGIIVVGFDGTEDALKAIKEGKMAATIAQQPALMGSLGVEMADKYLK
Protocol: (§1) 50 nM of RP-Tag Small (see Sequence 3, below) with an N-terminal Rhodamine B label was incubated with increasing concentrations of either RP-Tag Large (see Sequence 2) or Bovine Serum Albumin (BSA) in 50 mM Tris pH 8.0, 150 mM NaCl, 10 mM 2-mercaptoethanol, and 0.005% Tween 20 for 5 min in black 96-well plates at room temperature.
(§2) Anisotropy was then measured, and a Kd calculated by fitting the data to the equation f=y0+(ymax−y0)*(Ptot+x+Kd−sqrt((Ptot+x+Kd)^2−4*Ptot*x))/(2*Ptot), where y0 is the baseline anisotropy, ymax is the maximum anisotropy, Ptot is the fixed concentration of labeled peptide used, x is the variable concentration of protein used, and Kd is the measured Kd.
(§3) The indicated concentrations of RPtag (large) and an anti-His tag antibody (4E3D10H2/E3 purchased from ThermoFisher Scientific) were incubated with 1 nM rhodamine labeled native RPtag (small) peptide and 6×His peptide (Rhodamine-GHHHHHH), respectively, and fluorescence anisotropy measured. BSA incubated with native rhodamine labeled RPtag(small) is included as a control for non-specific binding. Kd's were calculated according to the equation f=y0+(ymax−y0)*(Ptot+x+Kd−sqrt((Ptot+x+Kd)^2−4*Ptot*x))/(2*Ptot), where y0 is the baseline anisotropy, ymax is the maximum anisotropy, Ptot is the fixed concentration of labeled peptide used, x is the variable concentration of protein used, and Kd is the measured Kd. We measured a Kd of 0.2±0.1 nM for RPtag(large) binding RPtag(small), and a Kd of 6±1 nM for the antibody/6×His tag pair.
Regarding the studies shown in FIG. 14, increasing concentrations of unlabeled RPtag large with the indicated mutations (native, f137d, and f137e) were incubated for 1 h with 1 nM rhodamine labeled RPtag small peptide and the fluorescence anisotropy was measured. Resultant curves were fit with the equation f=y0+(ymax−y0)*(Ptot+x+Kd−sqrt((Ptot+x+Kd)^2−4*Ptot*x))/(2*Ptot), where y0 is the baseline anisotropy, ymax is the maximum anisotropy, Ptot is the fixed concentration of labeled peptide used, x is the variable concentration of protein used, and Kd is the measured Kd. Data are presented here as Ka=1/Kd. Log transformed Ka's were then compared by one-way ANOVA with Holm-Sidak post hoc correction. ***p<0.001, **p<0.01, *p<0.05. data are mean±SEM (n=3-4). Buffer was 50 mM Tris pH 8.0, 0.005% tween20. Proteins were expressed and purified by single step NiNTA chromatography as before. Peptides were synthesized solid-state and handled as previous.

[2] = system: RPtag (large); experiment: Association/dissociation kinetics of RPtag (small) peptides with RPtag (large) by fluorescence anisotropy; assay type: binding, Thermoanaerobacter tengcongensis
Protocol: Panel a depicts representative association rate kinetics traces varying native RPtag small. Rhodamine labeled RPtag small at the indicated concentration was incubated with unlabeled RPtag large and the association measured by fluorescence anisotropy. L-S complex concentration was calculated by the equation (r−rmin)/(rmax−rmin)*[S] where r is the measured anisotropy, rmin is the anisotropy in the absence of any RPtag large, rmax is the anisotropy measured in the presence of at saturating RPtag large, and [S] is the total concentration of RPtag small used in the experiment. […] Dashed cyan lines are simulations of the mechanism shown in f using the rate constants detailed herein. The concentrations in the simulations were multiplied by a correction factor of 0.925, which is well within the 90% purity specification of the purchased peptide.
LS complex was performed by incubating 1000 nM RPtag large with the indicated concentrations of rhodamine labeled RPtag small. At the start of the experiment, 0.1 mM unlabeled native RPtag small was added and fluorescence anisotropy monitored. Data processing was done as in panel a, except the red fits were to the single exponential decay equation y=y0+A*exp(−b*t). As expected, the initial dissociation rates were linear with respect to the LS complex.
Fitting to a line yields a rate constant (koff)=0.0091 min^−1 (FIG. 9 panel e). In good agreement, when the kinetics are fit with a first order rate law, a rate constant of 0.012±0.002 min^−1 (n=15) was observed. […] Panel e is a graph of the initial rates of the traces represented in d. Slope of the fit line is 0.0091 min^−1. Data are mean±SE (n=3).
The library of mutant RPtag(small) peptides, described above, was next analyzed to measure off rates (koff). The on rate was also calculated from measured koff and Kd (S*-LS transition), except instead of using unlabeled native peptide as the competitor, we used unlabeled Nd2,P5A,E18A (the tightest binding RPtag(small) peptide identified). […] However, there were notable exceptions. […] This indicates, without wishing to be limited, that P5 may constrain the structure of the peptide. The increased flexibility imparted to the peptide by the P5A mutation may decrease the energy barrier required for binding/unbinding.

[3] = molecular target: RPtag (large); experiment: Buffer additive screen, Kd by fluorescence anisotropy; assay type: binding, Thermoanaerobacter tengcongensis
Protocol: To determine reagent compatibility with the disclosed system, an additive screen was performed, wherein the Kd between RPtag (large) and 3 RPtag (small) peptides—native, Nd8Cd4, and Nd2p5ae18a—were tested in the presence of several common buffer additives (Table 3).

[4] = molecular target: Bovine Serum Albumin (BSA) (Bos taurus, UniProt P02769); assay type: binding; settings: fluorescence anisotropy, rhodamine labeled peptide, up to 10 μM BSA
Bovine Serum Albumin (BSA) (Bos taurus, UniProt P02769), sequence (P02769 25-607): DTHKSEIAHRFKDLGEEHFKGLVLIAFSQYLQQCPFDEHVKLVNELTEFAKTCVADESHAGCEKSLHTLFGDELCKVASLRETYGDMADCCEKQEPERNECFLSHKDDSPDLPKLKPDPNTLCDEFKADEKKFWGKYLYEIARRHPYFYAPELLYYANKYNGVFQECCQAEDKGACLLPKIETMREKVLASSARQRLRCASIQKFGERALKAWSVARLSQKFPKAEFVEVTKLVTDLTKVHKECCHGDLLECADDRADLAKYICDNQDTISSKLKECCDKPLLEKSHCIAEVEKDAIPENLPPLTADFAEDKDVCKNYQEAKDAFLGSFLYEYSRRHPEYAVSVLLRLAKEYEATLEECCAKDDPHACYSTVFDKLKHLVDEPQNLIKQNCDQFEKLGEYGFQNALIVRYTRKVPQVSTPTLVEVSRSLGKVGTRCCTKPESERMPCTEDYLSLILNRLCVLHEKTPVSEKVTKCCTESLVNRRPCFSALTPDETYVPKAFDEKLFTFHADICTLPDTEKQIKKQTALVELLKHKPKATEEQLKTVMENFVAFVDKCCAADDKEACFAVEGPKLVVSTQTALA
Protocol: as §1, §2, §3

[5] = system: Bovine Serum Albumin (BSA); assay type: binding
Protocol: as §1, §2, §3

[6] = system: RPtag(large); experiment: pH profile of Kd by fluorescence anisotropy; assay type: binding, Thermoanaerobacter tengcongensis; settings: buffers pH 1.5 to 13
RPtag(large), sequence (as listed by the source): as the sequence (as listed by the source) above
Protocol: The Kds of Nd8,Cd4 for RPtag(large) was measured in the presence of buffers of different pHs ranging from 1.5 to 13.
For these experiments, Kds were measured by fluorescence anisotropy as described above in the following buffers, all at 100 mM with 0.005% Tween 20: glycine pH 1.5, glycine pH 2.0, glycine pH 3.0, acetate pH 4.5, 2-(N-morpholino)ethanesulfonic acid pH 6.0, tris pH 7.0, tris pH 7.5, tris pH 8.0, tris pH 8.5, borate pH 10.0, phosphate pH 11.5, phosphate pH 13.0.

[7] = system: immobilized RPtag(large) column; experiment: Native elution from immobilized RPtag(large) column (3 M NaCl binding, 3 M imidazole elution); set-up: species or system Thermoanaerobacter tengcongensis; settings: bound in 100 mM Tris pH 8.0, 3 M NaCl, 0.005% Tween20
immobilized RPtag(large) column, sequence (as listed by the source): as above
Excerpt: Because of the observed stabilizing character of NaCl and destabilizing character of imidazole on Nd8Cd4 binding, these reagents, among others, were incorporated into a novel buffering system for use with the disclosed proteins, peptides, systems, and methods. In particular, the effect of this novel buffer on binding of RPtag (small) Nd8Cd4 to an immobilized RPtag(large) column was studied. These experiments included eluting both (1) rhodamine labeled peptide and (2) N-terminally RPtag(small) Nd8Cd4 tagged with tagRFP from a column under native conditions. Generally, native conditions is taken to mean at or near biological conditions under which many proteins are folded, e.g. pH 4-9 at moderate temperature (4° C.-30° C.) in the absence of denaturants (e.g. guanidine hydrochloride, urea, SDS). This is in contrast to denaturing conditions, which generally rely on extreme pH (e.g. ≤2) denaturants, or high temperature to unfold proteins.
Briefly, columns, as described above, were first equilibrated with 10 mL 100 mM Tris pH 8.0, 3 M NaCl, 0.005% Tween20. Next, 1 mL of 10 uM rhodamine-tagged Nd8Cd4 or tagRFP containing an N-terminal RPtag (small) Nd8Cd4 tag was applied in the same buffer. The column was then washed with 10 mL of the same buffer. Finally, bound target molecules were eluted with 10 mL of 100 mM Tris pH 8.0, 3 M imidazole, 0.005% Tween20.

[8] = system: F137D RPtag(large); experiment: Compensatory mutation binding study by fluorescence anisotropy; set-up: species or system Thermoanaerobacter tengcongensis; settings: 1 nM rhodamine labeled peptide
F137D RPtag(large), sequence (as listed by the source, stated change not applied): as the sequence (as listed by the source) above, with F137D counted along it
Excerpt: The possibility of creating compensatory mutations in the two sequences was investigated by modifying position 14 of RPtag(small) and position 137 of RPtag(large). First, a positively charged lysine (K) was introduced at position L14 of RPtag(small) (FIG. 14). […] Next, position F137 of RPtag(large) was mutated to aspartic acid (D), which is a negatively charged residue under physiologic conditions. This substitution was introduced into RPtag(large) to balance the charge with the L14K substitution, and help restore interaction between the two residues. […] In other embodiments, different compensatory mutations may be introduced at F137 and L14, as well as other positions in the two RPtag proteins.
Regarding the studies shown in FIG. 14, increasing concentrations of unlabeled RPtag large with the indicated mutations (native, f137d, and f137e) were incubated for 1 h with 1 nM rhodamine labeled RPtag small peptide and the fluorescence anisotropy was measured. Resultant curves were fit with the equation f=y0+(ymax−y0)*(Ptot+x+Kd−sqrt((Ptot+x+Kd)^2−4*Ptot*x))/(2*Ptot), where y0 is the baseline anisotropy, ymax is the maximum anisotropy, Ptot is the fixed concentration of labeled peptide used, x is the variable concentration of protein used, and Kd is the measured Kd. Data are presented here as Ka=1/Kd. […]

[9] = system: RPtag (large) resin; experiment: Affinity-based precipitation/pull-down with RPtag (large) resin; assay type: binding, Thermoanaerobacter tengcongensis; settings: negative control peptide
RPtag (large) resin, sequence (as listed by the source): as the sequence (as listed by the source) above
Protocol: The disclosed proteins and peptides were used in precipitation/pull-down assays. Specifically, rhodamine was tagged with the RPtag(small) Nd8Cd4 peptide and RPtag(large) was immobilized on a resin, as described above.
Briefly, 100 μL 1000 nM rhodamine labeled RPtag(small) peptide was incubated with 2.5 uL wet settled RPtag (large) resin generated as (as described above) in phosphate buffered saline (PBS; Gibco)+1% BSA+0.005% Tween 20 at 4° C. for 60 min with continuous orbital shaking. Samples were then washed 3× with 500 μL of the same buffer with no peptide to remove unbound peptide. Bound RPtag(small) peptides were then eluted with 100 μL 100 mM glycine pH 1.5+0.005% Tween20, and the pH raised by adding 1 μL 1 M borate pH 10.0. The amount eluted was calculated from the blank subtracted fluorescence of the elution versus the load. After each elution, resin was washed once with 500 μL 6M GdnHCl and once with 500 μL phosphate buffered saline (Gibco)+1% BSA+0.005% Tween 20, before repeating the assay.
Sequential precipitation/pulldown trials were performed with the rhodamine labelled RPtag(small) Nd8Cd4 peptide, and the RPtag(large)-resin. After binding and pull-down, the rhodamine-peptide was eluted in 100 mM glycine pH 1.5, the column was washed with water and 6 M guanidine hydrochloride, and then re-equilibrated with buffer (50 mM Tris pH 8.0, 10 mM EDTA). […]

GEKIPNFIPAELKLITKENVQ [native]
Kd ([1]; Example 6, 1 nM rhodamine labeled native RPtag (small)): 0.0002 µM and ~0.0002 µM
slope of initial velocity line using S (total) ([2]; 1000 nM RPtag(large)): 0.035 min⁻¹
rate constant for conversion of S to S* from linear fit of initial rate plot, S (corrected) ([2]; 1000 nM RPtag(large), 0.6 to 10 nM RPtag (small)): 0.091 min⁻¹
dissociation rate constant from first order rate law fit ([2]; 0.1 mM unlabeled native RPtag small competitor, n=15): 0.012 ± 0.002 min⁻¹
koff ([2]; LS dissociation, unlabeled competitor peptide, listed as native RPtag (small)): 0.000152 s⁻¹
kr ([2]; S* to S reverse rate constant, calculated from Keq and kf, listed as native RPtag (small)): 0.056 min⁻¹
kon (M^−1 min^−1 ) (×10^7) ([2]; S*-LS transition, calculated from measured koff and Kd): 4.3 ± 0.1 ×10^7 M^−1 min^−1
Kd ([3]; Gdn-HCl (6M)): > 10 µM
Kd ([3]; SDS (2%)): > 10 µM
Kd ([3]; imidazole (3M)): > 10 µM
Kd ([3]; urea (8M)): > 10 µM
binding to BSA ([4]; listed as RPtag (small)): no detectable binding
binding to BSA ([4]; listed as native RPtag (small)): no interaction was detected
selectivity over non-specific (BSA) interaction [5]: > 50,000 fold
pH of relative maximum affinity [6]: ~8 pH
elution behaviour with 100 mM Tris pH 8.0, 3 M imidazole [7]: diffuse band

GEKIPNFIPAELKKITKENVQ [l14k]
binding to native RPtag(large) ([1]; 1 nM rhodamine labeled peptide, 50 mM Tris pH 8.0, 0.005% tween20): significantly impaired binding
binding affinity for F137D RPtag(large) [8]: substantially restored the binding affinity

GEKIPNFIP [Cd12]
Kd ([1]; N-terminal rhodamine tagged peptide, unlabeled RPtag (large), 50 mM Tris pH 8.0, 0.005% Tween 20, mean ± SE): > 100 µM
binding in pulldown [9]: no binding
